Legend:
[1] = system: corn seed, NCE Hybrid 5817; assay: Corn seed germination with IDS acid, root hairs; assay type: in vivo; conditions: 10 corn seed on germination tray, 1/10th of a gram of IDS acid, imbibed with water, day 5; control: root hairs only on short segments
From the text: A 34% tetrasodium iminodisuccinate solution was protonated with concentrated HCl and crystalized under refrigeration in a dilute water/ethanol. The crystals were then filtered out of the solution and the residual sodium chloride was rinsed from the crystals with ice water. The IDS crystals were then dried. Two sets of 10 corn seed, NCE Hybrid 5817, were then placed on germination trays. One tray had 1/10th of a gram of the IDS acid placed in the center of the tray. The seeds were then imbibed with water. The seeds germinated as expected on day 2. On day 5 the root hairs began to show on the seedlings treated with the IDS. Photos were taken. This procedure was repeated on three occasions with simular results. There were also root hairs on the control set, however, the root hairs were only on short segments of the roots. […] This would be a substantial increase in the root surface area.

pepper plants = assay: IDS versus EDTA chelates applied to the soil of pepper plants, tissue analysis; assay type: in vivo
Experimental: Below is the protocol and tissue analysis for the soil-applied iminodisuccinate and EDTA chelated mineral salts. Treatments: Control—no fertilizer 15-30-15 (fertilizer) alone 15-30-15 plus Cu IDS […] 15-30-15 plus Mn IDS […] 15-30-15 plus Zn IDS […] The standard fertilizer contained no micronutrients. Fertilizer was Hyponex 15-30-15. Each treatment was replicated 3 times. Soil treatments were applied as 50 ml per of the dilute blend of this invention. The pepper plants were transplanted into 1-gallon containers and grown until a suitable size. Plants were treated with the soil-applied chelate. Tissue samples were taken 30 days after the soil treatment had been applied. […] One gallon of fertilizer was poured over three replications of each set in the trial.

**Q.** `O=C(O)CC(NC(CC(=O)O)C(=O)O)C(=O)O` (stereo not drawn) [IDS, iminodisuccinic acid] was tested. Which “root hairs on seedlings” value [1] did it give?
**A.** root hairs appear along the entire length of radical and lateral roots

**Q.** And the “copper in tissue, TREATED” value (pepper plants; soil applied with 15-30-15, tissue 30 days after treatment, control 8.0)?
**A.** 10.8

**Q.** And the “TREATED (dry weight)” value (pepper plants; soil applied, control 4.8)?
**A.** 6.4

**Q.** What about the “TREATED DRY” value (pepper plants; soil applied, dry weight, CONTROL DRY 4.8) of the same molecule?
**A.** 6.8

**Q.** What about the “copper in tissue, TREATED ADJUSTED” value (pepper plants; soil applied, tissue level times dry weight, control adjusted 38.08) of the same molecule?
**A.** 68.79

**Q.** What about the “copper in tissue, CHANGE IN (adjusted)” value (pepper plants; soil applied, treated adjusted minus control adjusted 38.08) of the same molecule?
**A.** 30.72

**Q.** What about the “CHANGE IN WEIGHT” value (pepper plants; soil applied, treated dry minus control dry 4.8) of the same molecule?
**A.** 2.09

**Q.** And the “copper in tissue, % CHANGE (adjusted)” value (pepper plants; soil applied, versus control adjusted 38.08)?
**A.** 81%

**Q.** What about the “% CHANGE (dry weight)” value (pepper plants; soil applied, versus control dry 4.8) of the same molecule?
**A.** 44%

From patent US7166688B1, “Chelation compositions” (LidoChem, Inc., priority 2000, dated 2007)
